Measured values as given in patent US20230149401A1 (priority 2020, published 2023).

Key:
SARS-CoV-2 [1] = experiment: microbe, parasite or virus in culture; assay type: cell-based
[2] = system: endogenous furin-like enzymes; assay type: cell-based; conditions: HeLa-ACE2 cells
SARS-CoV-2 [3] = assay type: cell-based
PACE4 (PCSK6) = target: T1, PACE4 (PCSK6) (Homo sapiens, UniProt P29122); experiment: Biochemical PC-inhibition assay, substrate FAM-[…]-TAMRA
T1 construct: PACE4 (PCSK6; 150-693-Tev-Flag-6His); Tev site (C); Flag (C); 6His (C); made in house; host or cells: BacMam transduced CHO cells
T1 sequence (P29122 150-693): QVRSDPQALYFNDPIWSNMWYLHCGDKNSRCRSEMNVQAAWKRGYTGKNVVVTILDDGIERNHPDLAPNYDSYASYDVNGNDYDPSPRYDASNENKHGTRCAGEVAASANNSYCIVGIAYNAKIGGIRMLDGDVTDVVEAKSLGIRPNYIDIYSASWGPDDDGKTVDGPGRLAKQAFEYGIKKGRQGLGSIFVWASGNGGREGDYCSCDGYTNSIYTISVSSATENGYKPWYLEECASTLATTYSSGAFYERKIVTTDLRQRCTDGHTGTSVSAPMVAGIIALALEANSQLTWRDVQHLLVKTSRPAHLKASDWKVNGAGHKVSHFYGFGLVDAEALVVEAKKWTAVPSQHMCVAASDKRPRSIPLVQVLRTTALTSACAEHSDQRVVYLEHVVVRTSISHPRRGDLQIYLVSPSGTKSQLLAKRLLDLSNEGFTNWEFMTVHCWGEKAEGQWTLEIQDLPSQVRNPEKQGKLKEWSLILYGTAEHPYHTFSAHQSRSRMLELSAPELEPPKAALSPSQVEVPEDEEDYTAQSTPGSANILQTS
Protocol: (§1) Biochemical assay: The proprotein convertases furin (108-574-Tev-Flag-6His), PC5A (PCSK5; […]-Tev-Flag-6His), PACE4 (PCSK6; 150-693-Tev-Flag-6His), and PC7 (PCSK7; 142-634-Tev-Flag-6His) enzymes were purified from BacMam transduced CHO cells. […] 0.05 μl of each concentration was transferred to the corresponding well of an assay plate, and then 5 μl of enzyme (furin, PCSK5, PCSK6, and PCSK7) in assay buffer (100 mM HEPES pH 7.5, 1 mM CaCl2) and 0.005% Triton X-100) was added using a Multidrop Combi (Thermo) to the compound plates to give a final protein concentration of 0.02, 0.5, 2.5, and 1.0 nM respectively. The plates were mixed by inversion, and following a 30 min preincubation of enzyme with compound at room temperature (˜22° C.), the substrate FAM-[…] -TAMRA (AnaSpec #808143, 5 μl of a 1, 0.25, 0.20, and 0.5 μM solution in assay buffer for furin, PCSK5, PCSK6, and PCSK7 respectively) was added using a Multidrop Combi to the entire assay plate. The plates were centrifuged at 500×g for 1 minute and incubated at room temperature for two hours. Enzyme inhibition was then quantified using an Envision instrument (PerkinElmer). Data were normalized to maximal inhibition determined by 1 μM Decanoyl-Arg-Val-Lys-Arg-Chloromethylketone (Calbiochem #344930). Golgi imaging assay: This assay uses an image-based platform to evaluate the intracellular activity of furin inhibitors. Reactions were performed in black 384-well, tissue culture-treated, clear bottom plates (Greiner). Compounds under analysis were dissolved in DMSO (1.0 mM) and serially diluted 1 to 3 with DMSO through eleven dilutions. This creates a final compound concentration range from 0.00017 to 10 μM, and 0.1 μL of each concentration was transferred to the corresponding well of the assay plate.

PC7 (PCSK7) = target: T2, PC7 (PCSK7) (Homo sapiens, UniProt Q16549); experiment: as above
T2 construct: PC7 (PCSK7; 142-634-Tev-Flag-6His); Tev site (C); Flag (C); 6His (C); made in house; host or cells: BacMam transduced CHO cells
T2 sequence (Q16549 142-634): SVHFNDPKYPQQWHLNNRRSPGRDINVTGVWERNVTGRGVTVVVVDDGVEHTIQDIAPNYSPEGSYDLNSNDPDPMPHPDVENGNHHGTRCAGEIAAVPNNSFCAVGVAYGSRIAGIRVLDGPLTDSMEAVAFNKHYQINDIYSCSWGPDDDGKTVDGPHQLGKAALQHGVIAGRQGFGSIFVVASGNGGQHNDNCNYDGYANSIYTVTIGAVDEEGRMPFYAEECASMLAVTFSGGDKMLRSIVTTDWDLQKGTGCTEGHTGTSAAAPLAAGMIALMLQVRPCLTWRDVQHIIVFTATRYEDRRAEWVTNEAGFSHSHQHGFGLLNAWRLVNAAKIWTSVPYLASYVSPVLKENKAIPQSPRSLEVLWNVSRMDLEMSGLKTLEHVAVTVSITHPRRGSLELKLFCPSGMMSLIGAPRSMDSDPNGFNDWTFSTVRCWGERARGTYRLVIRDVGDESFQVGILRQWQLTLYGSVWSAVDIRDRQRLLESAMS
Protocol: as §1

PC5A (PCSK5) = target: T3, PC5A (PCSK5) (Homo sapiens, UniProt Q92824); experiment: as above
T3 construct: fused on or other part: C-terminal Tev site, Flag tag and 6His tag
T3 sequence (Q92824 115-601): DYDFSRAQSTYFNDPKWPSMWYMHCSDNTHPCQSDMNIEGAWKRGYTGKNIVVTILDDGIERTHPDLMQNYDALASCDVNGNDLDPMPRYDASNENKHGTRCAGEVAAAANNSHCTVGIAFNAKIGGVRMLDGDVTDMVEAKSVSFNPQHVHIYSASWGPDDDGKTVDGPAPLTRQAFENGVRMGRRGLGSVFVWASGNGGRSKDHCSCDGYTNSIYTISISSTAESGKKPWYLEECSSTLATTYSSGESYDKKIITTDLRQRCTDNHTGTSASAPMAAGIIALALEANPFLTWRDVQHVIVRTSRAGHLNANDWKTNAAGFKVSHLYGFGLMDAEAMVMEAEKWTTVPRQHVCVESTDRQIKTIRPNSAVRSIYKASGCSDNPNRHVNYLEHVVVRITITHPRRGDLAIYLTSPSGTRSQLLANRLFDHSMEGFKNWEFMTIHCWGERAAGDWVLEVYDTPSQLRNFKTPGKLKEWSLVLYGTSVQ
Protocol: as §1

furin-like convertases = assay type: cell-based; conditions: 1 μM; 293T17 producing cells and pseudovirions
[4] = system: HIV particles pseudotyped with SARS-CoV-2 S; assay type: cell-based
[5] = system: SARS-CoV-2 Spike ACE2-dependent cell-to-cell fusion; experiment: microbe, parasite or virus in culture; assay type: cell-based; conditions: Severe acute respiratory syndrome coronavirus 2; 300 nM
TMPRSS2 = TMPRSS2 (Homo sapiens, UniProt O15393); assay type: cell-based; parameters: expressed in transfected cells; host or cells: HeLa; conditions: HeLa cells
Chain of TMPRSS2 (O15393 whole entry): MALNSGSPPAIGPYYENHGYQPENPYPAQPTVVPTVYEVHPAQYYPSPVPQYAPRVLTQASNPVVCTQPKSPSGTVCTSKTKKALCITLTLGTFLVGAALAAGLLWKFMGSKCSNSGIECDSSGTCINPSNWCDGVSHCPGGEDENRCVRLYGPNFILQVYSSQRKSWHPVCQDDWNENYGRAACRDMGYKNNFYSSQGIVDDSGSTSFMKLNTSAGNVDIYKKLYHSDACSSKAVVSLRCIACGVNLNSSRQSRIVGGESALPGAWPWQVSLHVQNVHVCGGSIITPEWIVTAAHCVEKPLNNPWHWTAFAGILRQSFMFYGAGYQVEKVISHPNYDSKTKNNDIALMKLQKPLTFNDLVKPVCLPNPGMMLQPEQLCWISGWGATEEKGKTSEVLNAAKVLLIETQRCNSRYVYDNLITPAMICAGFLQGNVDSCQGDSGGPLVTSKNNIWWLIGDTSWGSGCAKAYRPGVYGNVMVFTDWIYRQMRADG

CN1CCN(c2ncc(Oc3cc(CN4CCC(CC(=O)O)CC4)cc(-c4cc(Cl)cc(Cl)c4)n3)cn2)CC1 [Compound 93, 2-(1-((2-(3,5-dichloro-phenyl)-6-((2-(4-methyl-piperazin-1-yl)pyrimidin-5-yl)oxy)pyridin-4-yl)methyl)piperidin-4-yl)acetic acid]
Concentration from which inhibitory effect could be observed (SARS-CoV-2 [1]): 0.25 µM | Levels of viral spike and nucleocapsid proteins and progeny virus levels (SARS-CoV-2 [1]): similarly decreased | Viral titers at 12, 24 and 48h post-infection (SARS-CoV-2 [1]): significantly decreased | Reduction of titer of progeny viruses (SARS-CoV-2 [1]; 1 μM): more than 30 fold | IC50 (SARS-CoV-2 [1]; Severe acute respiratory syndrome coronavirus 2, Calu-3, 24 h, read-out: IC50 (virus titer)): 200 nM | S1/S2 and S2′ processing by endogenous furin-like enzymes [2]: blocked | Virus production in infected Vero E6 cells (SARS-CoV-2 [3]): modestly reduce virus production | Decrease in virus production (SARS-CoV-2 [3]; 1 μM): ~5.7 fold | IC50 (PACE4 (PCSK6)): ~7 nM | IC50 (PC7 (PCSK7)): ~7 nM | IC50 (PC5A (PCSK5)): ~7 nM | Processing of WT-S (furin-like convertases): clearly impaired | Viral entry in Calu-3 of pseudovirions packaged in presence of inhibitor [4]: prevents viral entry | inhibition at 0.3 µM [5]: > 60% | Generation of S2a and S2b by TMPRSS2 (TMPRSS2): none of the compounds affected
